Reference: patent US20250304620A1, “ANTIMICROBIAL PEPTIDE AND APPLICATION THEREOF” (priority 2023, published 2025)
In brackets after ≈: the same amount, converted by molar mass. Marks after values point to notes of the source that are not given here. Non-standard residues stand in square brackets, D forms with d. Residues, ends and D or L forms follow the SMILES beside them. dPhe(4-F) = N[C@H](Cc1ccc(F)cc1)C(=O)O; d2Nal = N[C@H](Cc1ccc2ccccc2c1)C(=O)O

Experiments:
rabbit red blood cells = format: cell-based; settings: red cells of rabbit, 1 h
[1] = Serum stability assay (residual level by RP-HPLC); settings: human
Candida krusei ATCC 6258 = format: cell-based
Excerpt: (§1) According to the Standards of Clinical and Laboratory Standards Institute (CLSI) of the USA for antimicrobial drug susceptibility test operation standards, the micronutrient serial twofold dilution method was used further determine MICs of 30 AMPs (S/N: LV-1 to LV-30) 10 clinically common sensitive strains and 6 fungi in clinical practice. The experiment was repeated 5 times in parallel.

[2] = test system: Corynebacterium ATCC 7715; format: cell-based
Excerpt: as §1

[3] = test system: Pseudomonas aeruginosa ATCC 27853; format: cell-based
Excerpt: as §1

[4] = test system: Salmonella typhimurium ATCC 14028; format: cell-based
Excerpt: as §1

[5] = test system: Candida albicans ATCC MYA-2876; format: cell-based
Excerpt: as §1

[6] = test system: Candida glabrata ATCC 15126; format: cell-based
Excerpt: as §1

[7] = test system: Serratia marcescens ATCC 29021; format: cell-based
Excerpt: as §1

[8] = test system: Bacillus subtilis ATCC 6633; format: cell-based
Excerpt: as §1

[9] = test system: Staphylococcus aureus ATCC 25923; format: cell-based
Excerpt: as §1

Candida utilis ATCC 9950 = format: cell-based
Excerpt: as §1

[10] = test system: Klebsiella pneumoniae ATCC 700603; format: cell-based
Excerpt: as §1

[11] = test system: vancomycin-resistant Enterococcus (VRE); format: cell-based
Excerpt: (§2) According to the Standards of Clinical and Laboratory Standards Institute (CLSI) of the USA for antimicrobial drug susceptibility test operation standards, the micronutrient serial twofold dilution method was used further determine MICs of the antimicrobial peptides LV-1 to LV-30 against 5 clinically common drug-resistant bacterial strains. The experiment was repeated 5 times in parallel. […] The tested drug-resistant strains included Methicillin-resistant Staphylococcus aureus (MRSA), carbapenem-resistant Escherichia coli (CREC), vancomycin-resistant Enterococcus (VRE), carbapenem-resistant Pseudomonas aeruginosa (CRPA), and carbapenem-resistant Klebsiella pneumoniae (CRKP).

[12] = test system: carbapenem-resistant Escherichia coli (CREC); format: cell-based; settings: carbapenem-resistant (CREC)
Excerpt: as §2

[13] = test system: carbapenem-resistant Klebsiella pneumoniae (CRKP); format: cell-based; settings: carbapenem-resistant (CRKP)
Excerpt: as §2

[14] = test system: carbapenem-resistant Pseudomonas aeruginosa (CRPA); format: cell-based; settings: carbapenem-resistant (CRPA)
Excerpt: as §2

[15] = test system: Methicillin-resistant Staphylococcus aureus (MRSA); format: cell-based; settings: Methicillin-resistant
Excerpt: as §2

[16] = test system: Shigella flexneri ATCC 12022; test: MIC against clinically common bacterial strain; format: cell-based
Excerpt: as §1

[17] = test system: Pseudomonas aeruginosa ATCC 27853; test: Injectable formulations on mice infected with peritonitis; format: in vivo, ICR mice; settings: 1 mg/kg via tail vein, twice a day for 3 days, n = 10; for Average survival times (Days): observed for 14 d
Procedure, shortened: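 Survival readout: deaths and survival time tracked for 14 d. Treatment was tail-vein injection by body weight, twice a day for 3 consecutive days, starting right after intraperitoneal challenge with 0.2 mL of 1×10^9 CFU/mL P. aeruginosa ATCC 27853 in male and female ICR mice.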

| Compound | MHC (minimum hemolytic concentration, lowest concentration causing 10% hemolysis) (rabbit red blood cells) [µg/mL] | remaining at 12 h, 0.91 mg/mL [1] [%] | MIC Candida krusei ATCC 6258 (Candida krusei ATCC 6258) [µg/mL] | MIC Corynebacterium ATCC 7715 [2] [µg/mL] | MIC Pseudomonas aeruginosa ATCC 27853 [3] [µg/mL] | MIC Salmonella typhimurium ATCC 14028 [4] [µg/mL] | MIC Candida albicans ATCC MYA-2876 [5] [µg/mL] | MIC Candida glabrata ATCC 15126 [6] [µg/mL] | MIC Serratia marcescens ATCC 29021 [7] [µg/mL] | MIC Bacillus subtilis ATCC 6633 [8] [µg/mL] | MIC Staphylococcus aureus ATCC 25923 [9] [µg/mL] | MIC Candida utilis ATCC 9950 (Candida utilis ATCC 9950) [µg/mL] | MIC Klebsiella pneumoniae ATCC 700603 [10] [µg/mL] | MIC VRE [11] [µg/mL] | MIC CREC [12] [µg/mL] | MIC CRKP [13] [µg/mL] | MIC CRPA [14] [µg/mL] | MIC MRSA [15] [µg/mL] | MIC Shigella flexneri ATCC 12022 [16] [µg/mL] | Number of mice that died on each day after infection: day 1 [17] [Mouse] | further results |
| --- | --- | --- | --- | --- | --- | --- | --- | --- | --- | --- | --- | --- | --- | --- | --- | --- | --- | --- | --- | --- | --- |
| CC(=O)N[C@H](CCCNC(=N)N)C(=O)N[C@H](CCCCN)C(=O)N[C@H](CC(C)C)C(=O)N[C@H](CC(C)C)C(=O)N[C@H](Cc1ccc2ccccc2c1)C(=O)N[C@H](CCCNC(=N)N)C(=O)N[C@H](CC(C)C)C(=O)N[C@H](CCCCN)C(=O)N[C@H](Cc1ccccc1)C(=O)N[C@H](CCCNC(=N)N)C(=O)N[C@H](CCCCN)C(N)=O [LV-4] (Ac-[dR][dK][dL][dL][d2Nal][dR][dL][dK][dF][dR][dK]-NH2) | >1000 | 98.7 | 16 (≈ 10 µM) | 2 (≈ 1.25 µM) | 2 (≈ 1.25 µM) | 2 (≈ 1.25 µM) | 8 (≈ 5.01 µM) | 8 (≈ 5.01 µM) | 2 (≈ 1.25 µM) | 4 (≈ 2.51 µM) | 1 (≈ 0.627 µM) | 8 (≈ 5.01 µM) | 4 (≈ 2.51 µM) | 2 (≈ 1.25 µM) | 8 (≈ 5.01 µM) | 2 (≈ 1.25 µM) | 4 (≈ 2.51 µM) | 8 (≈ 5.01 µM) | 4 (≈ 2.51 µM) | 0 | Number of mice that died on each day after infection: day 2 [17]: 1 Mouse; Number of mice that died on each day after infection: day 3 [17]: 0 Mouse; Number of mice that died on each day after infection: day 4 [17]: 2 Mouse; Number of mice that died on each day after infection: day 5 [17]: 1 Mouse; Average survival times (Days) [17]: 9.9**** Days |
| CC(=O)N[C@H](CCCNC(=N)N)C(=O)N[C@H](CCCCN)C(=O)N[C@H](CC(C)C)C(=O)N[C@H](CC(C)C)C(=O)N[C@H](Cc1ccc(F)cc1)C(=O)N[C@H](CCCCN)C(=O)N[C@H](CC(C)C)C(=O)N[C@H](CCCCN)C(=O)N[C@H](Cc1ccc(F)cc1)C(=O)N[C@H](CCCCN)C(=O)N[C@H](CCCNC(=N)N)C(N)=O [LV-5] (Ac-[dR][dK][dL][dL][dPhe(4-F)][dK][dL][dK][dPhe(4-F)][dK][dR]-NH2) | >1000 | 98.2 | 4 (≈ 2.57 µM) | 4 (≈ 2.57 µM) | 2 (≈ 1.29 µM) | 4 (≈ 2.57 µM) | 8 (≈ 5.15 µM) | 16 (≈ 10.3 µM) | 2 (≈ 1.29 µM) | 4 (≈ 2.57 µM) | 1 (≈ 0.644 µM) | 16 (≈ 10.3 µM) | 2 (≈ 1.29 µM) | 8 (≈ 5.15 µM) | 8 (≈ 5.15 µM) | 4 (≈ 2.57 µM) | 4 (≈ 2.57 µM) | 4 (≈ 2.57 µM) | 2 (≈ 1.29 µM) | 1 | Number of mice that died on each day after infection: day 2 [17]: 1 Mouse; Number of mice that died on each day after infection: day 3 [17]: 1 Mouse; Number of mice that died on each day after infection: day 4 [17]: 0 Mouse; Number of mice that died on each day after infection: day 5 [17]: 1 Mouse; Average survival times (Days) [17]: 9.5*** Days |
